From PMC4352439, “Safety Evaluation of Chinese Medicine Injections with a Cell Imaging-Based Multiparametric Assay Revealed a Critical Involvement of Mitochondrial Function in Hepatotoxicity” (Evidence-based Complementary and Alternative Medicine : eCAM, 2015)
“And” between values parts separate entries of the source, which are not always exact repeats. Equal entries are not always repeated. Where two headings read alike, the source gives them in different places.

Key:
HepG2 cells = experiment: multiparametric cell-based HCA hepatotoxicity assay; set-up: species or system human; conditions: for IC50: HepG2, 24-hour incubation
[1] = set-up: method as in earlier work; conditions: Operetta assay protocol; read-out: median concentration (IC50); cited from earlier work

## N#CC(C#N)=NNc1ccc(OC(F)(F)F)cc1 [FCCP, P-fluoromethoxyphenylhydrazone]
HepG2 cells; 3 μM
  cell nucleuses (Hoechst 33342) in representative images: shrunk
  mitochondrial mass (MS), intensity of Mitotracker Deep Red FM in representative images: increase
HepG2 cells; 30 μM
  increase of plasma membrane permeability (PMP): 17.5 fold
HepG2 cells; read-out: IC50 of cell number (CN)
  IC50: 5.18 µM
HepG2 cells; read-out: IC50 of mitochondrial mass (MS)
  IC50: 7.02 µM
HepG2 cells; read-out: IC50 of mitochondrial membrane potential (MMP)
  IC50: 0.77 µM and 0.768 µM
HepG2 cells; read-out: IC50 of nuclear area (NA)
  IC50: 0.642 µM
HepG2 cells; read-out: IC50 of plasma membrane permeability (PMP)
  IC50: 25.7 µM
[1]
  IC50: 5.2 µM

## CC(=O)Nc1ccc(O)cc1 [acetaminophen]
HepG2 cells; 100 μM
  increase of plasma membrane permeability (PMP): 61.4 fold
HepG2 cells; 3 mM
  increase of nuclear area (NA): 25.7%
HepG2 cells; listed as AAP, read-out: IC50 of cell number (CN)
  IC50: 1840 µM
HepG2 cells; listed as AAP, read-out: IC50 of mitochondrial mass (MS)
  IC50: 9780 µM
HepG2 cells; listed as AAP, read-out: IC50 of plasma membrane permeability (PMP)
  IC50: 7.7 µM
HepG2 cells; Homo sapiens, HepG2, 24 h, read-out: IC50 of cell number (CN)
  IC50: 1840 µM
HepG2 cells; Homo sapiens, HepG2, 24 h, read-out: IC50 of mitochondrial mass (MS)
  IC50: 9780 µM
HepG2 cells; Homo sapiens, HepG2, 24 h, read-out: IC50 of plasma membrane permeability (PMP)
  IC50: 10 µM
[1]
  IC50: 1300 µM
